Laboratory results from ChEMBL document CHEMBL5329181, “Green synthesis and anti-biofilm activities of 3,5-disubstituted isoxazoline/isoxazole-linked secondary sulfonamide derivatives on Pseudomonas aeruginosa” (2023).
Calls of active or inactive are those of the source. The rule behind the calls is not given here.

Columns and labels:
Pseudomonas aeruginosa [1] = assay: Antibacterial activity against Pseudomonas aeruginosa H103 assessed as reduction in bacterial growth at 200 uM measured every 15 min for 24 hrs by optical density based analysis; type: functional, organism-based
Pseudomonas aeruginosa [2] = assay: Destabilization of mature biofilms in Pseudomonas aeruginosa assessed as biofilm dispersion at 200 uM incubated for 24 hrs by crystal violet staining based assay relative to control; type: functional
Pseudomonas aeruginosa [3] = assay: Antibiofilm activity against Pseudomonas aeruginosa assessed as inhibition of biofilm formation at 200 uM incubated for 24 hrs by crystal violet staining based assay; type: functional, organism-based

SMILES: NNC(=O)c1ccccc1S(=O)(=O)NCc1cc(-c2ccc(Cl)cc2Cl)no1
- Activity (Pseudomonas aeruginosa [1]): inactive
- Activity (Pseudomonas aeruginosa [2]): 50%
- Activity (Pseudomonas aeruginosa [3]): inactive

SMILES: NNC(=O)c1ccccc1S(=O)(=O)NCC1CC(c2ccccc2)=NO1 (stereo not drawn)
- Activity (Pseudomonas aeruginosa [1]): inactive
- Activity (Pseudomonas aeruginosa [3]): inactive

SMILES: NNC(=O)c1ccccc1S(=O)(=O)NCC1CC(c2ccc(Br)cc2)=NO1 (stereo not drawn)
- Activity (Pseudomonas aeruginosa [1]): inactive
- Activity (Pseudomonas aeruginosa [3]): inactive

SMILES: CN[C@@H]1[C@@H](O[C@H]2O[C@H](CO)[C@@H](N)[C@H](O)[C@H]2O)O[C@H]2C[C@@H](N)[C@@H](O[C@H]3[C@H](O)[C@@H](O)[C@H](N)C[C@@H]3N)O[C@@H]2[C@@H]1O
- Activity (Pseudomonas aeruginosa [2]): 50%

SMILES: C#CCNS(=O)(=O)c1ccccc1C(=O)NN
- Activity (Pseudomonas aeruginosa [1]): inactive
- Activity (Pseudomonas aeruginosa [3]): inactive

SMILES: NNC(=O)c1ccccc1S(=O)(=O)NCC1CC(c2ccc(Cl)c(Cl)c2)=NO1 (stereo not drawn)
- Activity (Pseudomonas aeruginosa [1]): inactive
- Activity (Pseudomonas aeruginosa [3]): inactive

SMILES: COc1ccc(C2=NOC(CNS(=O)(=O)c3ccccc3C(=O)NN)C2)cc1 (stereo not drawn)
- Activity (Pseudomonas aeruginosa [1]): inactive
- Activity (Pseudomonas aeruginosa [2]): 50%
- Activity (Pseudomonas aeruginosa [3]): inactive

SMILES: NNC(=O)c1ccccc1S(=O)(=O)NCc1cc(-c2ccc(Br)cc2)no1
- Activity (Pseudomonas aeruginosa [1]): inactive
- Activity (Pseudomonas aeruginosa [3]): inactive

SMILES: NNC(=O)c1ccccc1S(=O)(=O)NCC1CC(c2cccc([N+](=O)[O-])c2)=NO1 (stereo not drawn)
- Activity (Pseudomonas aeruginosa [1]): inactive
- Activity (Pseudomonas aeruginosa [3]): inactive

SMILES: Cc1ccc(C2=NOC(CNS(=O)(=O)c3ccccc3C(=O)NN)C2)cc1 (stereo not drawn)
- Activity (Pseudomonas aeruginosa [1]): inactive
- Activity (Pseudomonas aeruginosa [3]): inactive

SMILES: NNC(=O)c1ccccc1S(=O)(=O)NCC1CC(c2ccc(Cl)cc2)=NO1 (stereo not drawn)
- Activity (Pseudomonas aeruginosa [1]): inactive
- Activity (Pseudomonas aeruginosa [2]): inactive
- Activity (Pseudomonas aeruginosa [3]): inactive

SMILES: C=CCNS(=O)(=O)c1ccccc1C(=O)NN
- Activity (Pseudomonas aeruginosa [1]): inactive
- Activity (Pseudomonas aeruginosa [2]): 30%
- Activity (Pseudomonas aeruginosa [3]): inactive

SMILES: NNC(=O)c1ccccc1S(=O)(=O)NCC1CC(c2ccc(Cl)cc2Cl)=NO1 (stereo not drawn)
- Activity (Pseudomonas aeruginosa [1]): inactive
- Activity (Pseudomonas aeruginosa [2]): 50%
- Activity (Pseudomonas aeruginosa [3]): inactive

SMILES: NNC(=O)c1ccccc1S(=O)(=O)NCC1CC(c2ccccc2Cl)=NO1 (stereo not drawn)
- Activity (Pseudomonas aeruginosa [1]): inactive
- Activity (Pseudomonas aeruginosa [2]): inactive
- Activity (Pseudomonas aeruginosa [3]): inactive
